Experimental data as given in paper PMC6804243, “Small-Molecule Inhibition of UBE2T/FANCL-Mediated Ubiquitylation in the Fanconi Anemia Pathway” (ACS Chemical Biology, 2019).
Entries after “also recorded” stand apart in the source; their conditions may differ. Read-outs that look alike come from different tables or passages of the source.

Columns and labels:
[1] = tested on: T1, UBE2D1; test: Gel-based ubiquitylation assay (UBE2D1/GST-FANCLRING), ubiquitylated UBE2D1 species; type: biochemical; details: E2 = UBE2D1, E3 = GST-FANCLRING; 30 min at 37 °C
T1 construct: His6 (N); made in house; host or cells: E. coli Rosetta (DE3)
Experimental: (§1) Figure 2 Gel-based ubiquitylation assays with confirmed HTRF hits. […] Western blots (WB) probed for GST or biotin as labeled. Reactions contained 20 nM His6-UBE1, 50 nM E2, 250 nM GST-E3, 500 nM biotinylated ubiquitin: (a) E2 = UBE2T, E3 = GST-FANCLRING, 30 min of reaction at 37 °C; (b) E2 = UBE2D1, E3 = GST-FANCLRING, 30 min of reaction at 37 °C; and (c) E2 = UBE2D1, E3 = GST-RNF8, 10 min of reaction at 37 °C.
(§2) In order to explore the selectivity of CU1, CU2, CU9, CU10, and CU12, we conducted a counter-screen against other E2 and E3 combinations. Since members of the UBE2D family of E2s are known to ubiquitylate multiple substrates in vitro,[13] a ubiquitylation assay featuring UBE2D1 and GST-FANCLRING was performed. With UBE2D1, multiple ubiquitylated GST-FANCLRING species could be observed (Figure 2b).
(§3) Purified protein was concentrated using a Vivaspin-6 concentrator with a 10 kDa MW cut-off (Vivascience) and flash-frozen in small aliquots for storage at […]
Cy5 labelling of ubiquitin. […]
Homogeneous Time-Resolved Fluorescence (HTRF) Assay. […]
(v/v) DMSO. […] Signal was measured at λEx 340 nm and λEm 665 nm and 620 nm using a PHERAstar FS plate reader
(BMG Labtech). A ratio was calculated as [λEm(665)/λEm(620)] × 104 for each well and this was used to determine the percent inhibition for test compounds. […]

[2] = tested on: T2, UBE2T / GST-FANCLRING; test: Gel-based ubiquitylation assay, E2 = UBE2T, E3 = GST-FANCLRING; type: biochemical; details: compound 100 μM, 30 min at 37 °C, Western blot
T2 construct: the RING domain (residues 275–375) of the E3 FANCL (FANCLRING); His6 (N); made in house; host or cells: E. coli Rosetta (DE3)

[3] = tested on: T3, UBE1; test: Gel-based ubiquitylation assay (UBE2T/GST-FANCLRING), autoubiquitylation of UBE1; type: biochemical; details: compound 100 μM; Western blot probed for biotin
T3 construct: purchased Boston Biochem

[4] = tested on: T4, UBE2T; test: Gel-based ubiquitylation assay (UBE2T/GST-FANCLRING), blot probed for UBE2T; type: biochemical; details: compound 100 μM; Western blot probed for UBE2T
T4 construct: His6 (N); made in house; host or cells: E. coli Rosetta (DE3)

[5] = target: T5, UBE2T/FANCLRING (ubiquitylation of GST-FANCLRING) (Homo sapiens, UniProt Q9NW38); test: biochemical
T5 sequence (Q9NW38 275-375 limits assumed): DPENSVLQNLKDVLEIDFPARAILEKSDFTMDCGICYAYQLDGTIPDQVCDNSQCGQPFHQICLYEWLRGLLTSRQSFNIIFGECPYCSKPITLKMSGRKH
Text: To identify small-molecule inhibitors of the FA pathway, we developed a high-throughput screen (HTS) compatible assay based on the FA ubiquitylation cascade (see Figure 1a, as well as Figure S1 in the Supporting Information). Given the complexity of the full FA ubiquitylation cascade, we constructed a simplified ubiquitylation reaction that would be robust for HTS purposes yet still provide many relevant protein species for small molecules to interact with. The recombinant protein assay developed used homogeneous time-resolved fluorescence (HTRF) and contained Cy5-labeled ubiquitin, the E1 enzyme UBE1, the E2 enzyme UBE2T, and the RING domain (residues 275–375) of the E3 FANCL (FANCLRING). FANCLRING was used as a surrogate substrate for ubiquitylation in the absence of the FA core and FANCD2/FANCI complexes.
Figure 1 Screening for inhibitors of the FA pathway. (a) Schematic of the HTRF ubiquitylation assay. Ubiquitylation of GST-tagged E3 (FANCLRING) by the E2 (UBE2T) places Cy5-labeled ubiquitin in close proximity to the anti-GST Tb cryptate. Excitation of the Tb cryptate donor results in FRET to the Cy5 acceptor. Simultaneous monitoring of the donor emission (620 nm) and acceptor emission (665 nm) allows for determination of the 665/620 ratio. (b) HTRF screen results showing average inhibition (n = 2) produced by compounds at 20 μM (in-house diversity library; 10 111 compounds) and 10 μM (Selleckchem epigenetic library; 119 compounds). Numbers given in parentheses represent the number of compounds per inhibition threshold.
as §3
(§4) Cy5 labelling of ubiquitin. To a 5 mg/mL solution of recombinant human ubiquitin (Boston Biochem) in 0.1 M NaHCO3 pH 8.3, was added a 4-fold molar excess of Cyanine5 NHS ester (Lumiprobe). The reaction was incubated at 23 °C for 4 hours in the dark. The protein was separated from unreacted dye by passage through a PD-10 desalting column (GE Healthcare) equilibrated with PBS. Purified protein was concentrated using a Vivaspin-6 concentrator with a 3 kDa MW cut-off (Vivascience) and flash-frozen in small aliquots for storage […]
(§5) Homogeneous Time-Resolved Fluorescence (HTRF) Assay. GST-FANCLRING (200 nM) was incubated with anti-GST Tb (CisBio, #61GSTTL) (2.5 ng final) at room temperature for 30 minutes in assay buffer (50 mM Tris-HCl pH 8.0, 1 mM TCEP, 5 mM MgCl2, 0.005% Tween-20). Meanwhile, 10 μL of UBE2T in assay buffer (or assay buffer alone for no enzyme controls) was incubated in a white 384-well plate (Corning) with 20 nL DMSO or compound in DMSO. After 30 minutes, the GST-RINGRING solution was added to an equal volume solution containing His-UBE1 (Boston Biochem) (16 nM), Cy5-ubiquitin (400 nM), ATP (0.8 mM) in assay buffer. 10 μL of this solution was immediately added to each well of the 384 -well plate containing UBE2T or buffer. F inal concentrations: His -UBE1 (4 nM), UBE2T (6 nM), GST -RINGRING (50 nM), Cy5-ubiquitin (100 nM), ATP (0.2 mM), compound (10 or 20 μM) in 0.1 %
(§6) (v/v) DMSO. After a 10 minute incubation at 23 °C, 5 µL of a 50 mM EDTA solution were added to each well to stop the reaction. Signal was measured at λEx 340 nm and λEm 665 nm and 620 nm using a PHERAstar FS plate reader
(§7) (BMG Labtech). A ratio was calculated as [λEm(665)/λEm(620)] × 104 for each well and this was used to determine the percent inhibition for test compounds.
Gel-based ubiquitylation assays. Assays were carried out in a total volume of 10 µL containing 20 nM His6-UBE1 (Boston Biochem), 50 nM UBE2T, 250 nM GST-E3 and 500 nM biotinylated ubiquitin (Boston Biochem) in buffer (50

[6] = tested on: T6, UBE2D1 / GST-FANCLRING; test: Gel-based ubiquitylation assay, E2 = UBE2D1, E3 = GST-FANCLRING; type: biochemical; details: 30 min at 37 °C, Western blot
T6 construct: the RING domain (residues 275–375) of the E3 FANCL (FANCLRING); His6 (N); made in house; host or cells: E. coli Rosetta (DE3)
Experimental: as §1, §2, §3, §4, §5, §6, §7
(§8) Gel-based ubiquitylation assays. Assays were carried out in a total volume of 10 µL containing 20 nM His6-UBE1 (Boston Biochem), 50 nM UBE2T, 250 nM GST-E3 and 500 nM biotinylated ubiquitin (Boston Biochem) in buffer (50 […]
(§9) Reaction mixtures were incubated for the indicated time at 37 °C and stopped by the addition of 2X reducing SDS -PAGE sample buffer, separated on NuPAGE Novex 4 –12% Bis/Tris gradient gels (Invitrogen) and visualized by Western blotting using the indicated antibodies (Table S3).
Cell culture. […]

[7] = tested on: T7, UBE2D1 / GST-RNF8; test: Gel-based ubiquitylation assay, E2 = UBE2D1, E3 = GST-RNF8; type: biochemical; details: 10 min at 37 °C, Western blot
T7 construct: His6 (N); made in house; host or cells: E. coli Rosetta (DE3)
Experimental: as §1
A further ubiquitylation assay was performed with an alternative E3, RNF8, which also plays important roles in the DDR.[14] In contrast to GST-FANCLRING, long polyubiquitin chains were attached to GST-RNF8 by UBE2D1 (Figure 2c).
as §3, §4, §5, §6, §7, §8, §9
Cell culture. U2OS cells were cultured at 37 °C in a humidified atmosphere and 5% (v/v) CO2 in Dulbecco's Modified Eagle Medium (DMEM; Sigma-Aldrich) supplemented with 10% (v/v) fetal bovine serum (FBS), 100 units/ml of penicillin, […] of streptomycin and 292 μg/mL L-glutamine.
Cell extract preparation and immunoblotting. U2OS cells were lysed in buffer containing 50 mM Tris-HCl pH 7.5, 2% SDS, 10 mM NEM, cocktail protease inhibitor (Roche) and phosphatase inhibitor cocktail followed by sonication 100 µg of extracts were boiled for 5 mins at 95 °C in 5X loading buffer and loaded onto NuPAGE Novex 4–12% Bis/Tris gradient gels
(Invitrogen), or NuPAGE Novex 3-8% Tris/Acetate gradient gels (Invitrogen) for detection of mUb-FANCD2. After separation the gels were transferred to PVDF and the membranes were blocked with Tris-buffered saline containing 0.1% (v/v) Tween-20 (TBST) and 5% (v/v) bovine serum albumin (BSA) and […]

## O=C(CCc1ccco1)NS(=O)(=O)c1cccc2ncccc12 [CU10]
[1]
  formation of ubiquitylated UBE2D1 species: prevented the formation of any ubiquitylated UBE2D1 species
[2]
  ubiquitylation of GST-FANCLRING (mUb-GST-FANCLRING band): no ubiquitylation of FANCLRING was observed
[3]
  autoubiquitylation of UBE1: somewhat impaired the autoubiquitylation of UBE1
[4]
  ubiquitylation of UBE2T: prevented the ubiquitylation of UBE2T; also recorded: essentially completely inhibited
[5]; library stock, 10-point dose-response, read-out: Primary screen IC50
  IC50: 10.9 µM
[5]; ligand efficiency = 1.4(–logIC50)/HAC
  LE: 0.35
[5]; printed beside the structures in Figure S3, read-out: IC50 (Figure S3)
  IC50: 2.1 µM
[5]; read-out: Primary screen % Inhibition (20 M)
  inhibition at 20 µM: 93.8%
[6]
  ubiquitylation of GST-FANCLRING: essentially abolished the ubiquitylation of GST-FANCLRING
[7]
  ubiquitylation of GST-RNF8 and UBE2D1: appeared to inhibit the ubiquitylation of all species in the assay
